{"source": "patent US20070203079A1", "about": "“Methods of using small molecule compounds for neuroprotection” (priority 2005, published 2007)", "assay_type_in_all_cases": "in vivo, C. elegans", "key": {"[1]": {"system": "worms containing Pdat-1::GFP+Pdat-1::torsinA+Pdat-1::torsinA (ΔE) after 6-OHDA exposure", "assay": "6-OHDA dopaminergic neurodegeneration in worms with wt and mutant torsinA", "details": "wt and mutant torsinA co-expressed; 6-OHDA insult", "source_text": "Previous studies have established that the “CEP” and “ADE” mechanosensory neurons in C. elegans undergo readily discernable neuronal degeneration after treatment with the dopamine-selective neurotoxin 6-OHDA (Nass et al, 2002). The toxicity of 6-OHDA is mediated through the formation of reactive oxygen species by the generation of hydrogen peroxide and […] via a nonenzymatic auto-oxidation process (Kumar et al., 1995; Foley and Riederer, 2000). […] This degeneration can be monitored in living animals by coexpressing with green fluorescent protein and categorized into three temporally and morphologically distinct stages, including neuronal process blebbing, cell body rounding with process loss, and cell body loss. These characteristic changes reproducibly appear in this order within a few hours, recapitulating observations in MPTP-treated monkeys and in 6-OHDA-treated rats, in which damage to striatal terminals leads to retrograde changes and precedes that of SNpc cell bodies (Berger et al., 1991; Herkenham et al., 1991). The actions of torsin protein in 6-OHDA-mediated neurodegeneration has recently been shown (Cao et al., J Neurosci, 25(1):3801-3812). Animals were treated with various concentrations of 6-OHDA and neurodegeneration was followed over time, as worms develop and age, by co-expression of a dopamine GFP marker in these transparent animals.\nC. elegans nematodes were grown at 25° C. on NGM plates as described by Brenner (Brenner, Genetics, 1974, 77: 71-94). Two transgenic C. elegans lines were used for primary screens of the Prestwick small molecule library. A transgenic worm line expressing Pdat-1::GFP; with both wild type (Pdat-1::torsinA) or mutant (Pdat-1:::torsinA(ΔE)). Torsin-A expresses a phenotype that results in visible neurodegeneration after treatment with 6-OHDA. Transgenic worms were plated on drug plates and progeny were studied for morphological changes in the 8 dopaminergic neurons present in C. elegans.\nDrugs were administered to C. elegans according to a standard procedure (Rand and Johnson, Methods Cell Biol, 1995, 48: 187-204) by mixing the solubilized drug with the agar medium on which the worms are grown. This mode of administration allows the continuous exposure of worms to the drug.\nEach drug was first dissolved in an appropriate solvent, followed by adding the drug solution into pre-autoclaved media, with the volume of drug solution already taken into account. All drugs were tested at 0.5 mg/ml initial concentration, a few of which were toxic to worms and then tested at 0.1 mg/ml or 0.025 mg/ml concentration. Each plate was seeded with 100 μl concentrated E. coli OP50 bacteria\nAge-synchronized worms were obtained by treating gravid adults with 2% sodium hypochlorite and 0.5M NaOH to isolate embryos (Lewis Fleming, 1995). These embryos were grown for 30 h at 25° C. At the L3 stage, larvae were incubated with 10 mM (50 mM) 6-OHDA and 2 mM (or 10 mM) ascorbic acid for 1 h with gentle agitation every 10 minutes. (Nass et al., 2002). The worms were then washed and spread onto NGM plates seeded with bacteria (OP50) and scored at time points ranging from 2 to 72 h after 6-OHDA exposure.\nImmediately after 6-OHDA treatment, worms containing the transgenes were selected under a fluorescence dissecting microscope, based on the presence of GFP, and transferred to a fresh NGM plate seeded with OP50. For each time point, 30-40 worms were applied to a 2% agarose pad and immobilized with 3 mM levamisole. Worms were examined under a Nikon Eclipse E800 epifluorescence microscope equipped with an Endow GFP filter cube (Chroma Technology, Rockingham, Vt.). For ease of analysis, only the four CEP DA neurons in the head of the worm were scored. […]"}, "GFP::DAT-1": {"system": "GFP::DAT-1", "assay": "Pdat-1::GFP::DAT-1 expression within DA neurons", "details": "for Neurons with cell body and dendritic/axonal GFP: water control 70%; for Mean pixel intensity of cell bodies ± SEM (fluorescence intensity): water control 1970 ± 80, compounds at 1.85, 1.49, 1.86 mM"}, "[2]": {"system": "worms containing Punc-54::Q82::GFP+Punc-54::torsinA+Punc54::torsinA (ΔE)", "assay": "Screen for reduction of polyglutamine protein aggregates in worms with wt and mutant torsinA", "details": "differentiated by Q82::GFP lines without torsinA, with wt torsinA or with mutant torsinA", "protocol": "(§1) C elegans nematodes were grown at 20° C. on NGM plates as described by Brenner (Brenner, Genetics, 1974, 77: 71-94). Several transgenic C. elegans lines were used for primary screens of the Prestwick small molecule library. A transgenic worm line expressing Punc-54::Q82-GFP; with both wild type (“wt”) (Punc=54: :torsinA) or mutant (Punc-54::torsinA(ΔE)). Torsin-A expresses a phenotype that results in visible protein aggregation under fluorescent microscope. Transgenic worms were plated on drug plates and progeny were studied for a return to soluble protein.\n(§2) Drugs were administered to C. elegans according to a standard procedure (Rand and Johnson, Methods Cell Biol, 1995, 48: 187-204), by mixing the solubilized drug with the agar medium on which the worms are grown. This mode of administration allows the continuous exposure of worms to the drug.\nEach drug was first dissolved in an appropriate solvent, followed by adding the drug solution into pre-autoclaved media, with the volume of drug solution already taken into account. […] Each plate was seeded with 100 μl concentrated E. coli OP50 bacteria.\n(§3) The screening assays used to identify the compounds use protein aggregation readouts to determine the specificities of molecular action. […]\n(§4) The methods for the aggregate analysis assay are described in Caldwell et al. (Hum Mol Genetics, 2003, 12(3): 307-319). […] MetaMorph Software (Universal Imaging Inc.) was used for pseudocoloration of images, image overlay, and aggregate size quantitation. For each worm line analyzed, average aggregate size was determined by capturing images of all aggregates in the posterior region of 30 L3-staged animals (for Q82::GFP aggregates) or all aggregates in 30 adult animals/day (for Q19::GFP analyses) at 1000× magnification. […]\n(§5) To see the effect of the candidate compounds on suppressing protein misfolding and aggregation, five gravid adult worms were placed onto each drug plate and grown at 20° C. for approximately 3 days. Thirty Fl worms at L3 stage and young adult stage were counted for aggregate number."}, "[3]": {"system": "worms expressing Punc-54::Q82::GFP+Punc-54::torsinA with wt torsinA only", "assay": "Protein aggregate assay in worms with wt torsinA only", "protocol": "as §1, §2\nEach drug was first dissolved in an appropriate solvent, followed by adding the drug solution into pre-autoclaved media, with the volume of drug solution already taken into account. […]\nas §3, §4, §5"}, "[4]": {"system": "protein misfolding and aggregation in transgenic worms", "assay": "Preventative assay of protein aggregation (drug from hatching to L2 stage)", "details": "exposure from hatching to L2 stage; scored at L3 and young adult", "protocol": "(§6) To see the preventative effects of the candidate drug compounds on protein misfolding and aggregation, five gravid adult worms were placed onto each drug plate and grown at 20° C. for approximately 3 days. 35-40 Fl worms at L2 stage were picked and transferred to a control plate with the same concentration of control solvent compared to the drug plate. Thirty worms at L3 stage were counted for aggregate number 8 hours later. Thirty young adults were analyzed 32 hours later.\n(§7) To calculate the scaled effectiveness of special regimen of drugs on worms based on standardized decrease in protein aggregates. The following formula was used: (A−B)/(A−C)×100%, where\n(§8) A=number of aggregates for worms growing on solvent control plates\n(§9) B=number of aggregates for worms grown on the specific drug plate for the entire life of the worms\nC=number of aggregates for worms that received pre-L2 exposure and were then removed to solvent control plates\n(§10) If the regimen has no effect, the value would equal 0%. Conversely, if the regimen was as effective as raising the worms on the drug for their entire life, the value would equal 100%."}, "[5]": {"system": "protein misfolding and aggregation in transgenic worms", "assay": "Corrective assay of protein aggregation (drug from L2 stage onward)", "details": "drug exposure from L2 stage onward; scored at L3 and young adult", "protocol": "as §6, with “corrective effect” for “preventative effects”, “a solvent control” for “each drug”, “a” for “a control plate with the same concentration of control solvent compared to the”\nas §7, §8, §9\nC=number of aggregates for worms that received exposure from L2 stage (until adulthood)\nas §10"}, "[6]": {"system": "Pdat-1::GFP+Pdat-1::α-synuclein+Pdat-1::torsinA worms", "assay": "α-synuclein toxicity assay, wt torsinA", "source_text": "(§11) We have previously shown that torsinA can prevent dopamine (“DA”) neuron degeneration resulting from overexpression of α-synuclein in the DA neurons of C. elegans, while torsinA (“ΔE”) has a reduced neuroprotection (Cao et al., J Neurosci, 2005, 25(1): 3801-3812). Specifically, only 26.1±5.3% of the worms expressing Pdat-1::GFP+Pdat-1::α-synuclein maintained all 4 wildtype CEP DA neurons as 4 day adults while the percentages of the worms expressing Pdat-1::GFP+Pdat-1::α-synuclein+Pdat-1::torsinA and Pdat-1::GFP+Pdat-1::α-synuclein+Pdat-1:: torsinA (ΔE) are 57.3±1.6% and 42.2±7.3%, respectively (Cao et al., J Neurosci, 2005, 25(1): 3801-3812) (FIG. 8).\n(§12) All molecules are coded by Prestwick Library number. TorsinA-dependent compounds identified from the aggregation assay have torsinA-specific effects and, therefore, are likely to function in the same manner in the α-synuclein toxicity assay. All three α-synuclein transgenic lines were exposed to the five torsinA-dependent compounds to determine their torsinA-specificity (FIG. 9). As expected, none of these compounds had any effect in Pdat-1::GFP+Pdat-1::α-synuclein when torsinA expression is absent."}, "[7]": {"system": "Pdat-1::GFP+Pdat-1::α-synuclein+Pdat-1:: torsinA (ΔE) worms", "assay": "α-synuclein toxicity assay, mutant torsinA", "source_text": "as §11, §12"}, "[8]": {"system": "transgenic worms containing the transgene Punc-54::Q82::GFP without any torsinA expression", "assay": "Protein aggregate assay in worms without torsinA expression", "protocol": "C elegans nematodes were grown at 20° C. on NGM plates as described by Brenner (Brenner, Genetics, 1974, 77: 71-94). Several transgenic C. elegans lines were used for primary screens of the Prestwick small molecule library. A transgenic worm line expressing Punc-54::Q82-GFP; with both wild type (“wt”) (Punc=54: :torsinA) or mutant (Punc-54::torsinA(ΔE)). Torsin-A expresses a phenotype that results in visible protein aggregation under fluorescent microscope. Transgenic worms were plated on drug plates and progeny were studied for a return to soluble protein. […]\nas §3, §4"}, "[9]": {"details": "Pdat-1::GFP::DAT-1, listed as Ciclopirox etnanolamine"}}, "note": "Counter-ions that a name gives are not always drawn."}
{"smiles": "Cc1cc(C2CCCCC2)n(O)c(=O)c1.NCCO", "note": "[Ciclopirox ethanolamine]", "values": [{"measurement": "neuroprotection of dopaminergic neurons against 6-OHDA", "setting": "[1]", "result": "showed no neuroprotection"}, {"measurement": "Worms with no GFP", "setting": "GFP::DAT-1; Pdat-1::GFP::DAT-1, water control 0%", "result": 0, "unit": "%"}, {"measurement": "Neurons with cell body GFP only", "setting": "GFP::DAT-1; Pdat-1::GFP::DAT-1, water control 30%", "result": 32.3, "unit": "%"}, {"measurement": "Neurons with cell body and dendritic/axonal GFP", "setting": "GFP::DAT-1; Pdat-1::GFP::DAT-1", "result": 66.7, "unit": "%"}, {"measurement": "Neurons with cell body and dendritic/axonal GFP", "setting": "GFP::DAT-1; [9]", "result": 66.7, "unit": "%"}, {"measurement": "Mean pixel intensity of cell bodies ± SEM (fluorescence intensity)", "setting": "GFP::DAT-1; Pdat-1::GFP::DAT-1", "result": 1923, "unit": "A.U."}, {"measurement": "Mean pixel intensity of cell bodies ± SEM (fluorescence intensity)", "setting": "GFP::DAT-1; [9]", "result": "1923 ± 85", "unit": "A.U."}, {"measurement": "effect on GFP::DAT-1 level", "setting": "GFP::DAT-1; result in words", "result": "did not have any significant effect"}]}
{"smiles": "Cc1onc(-c2ccccc2Cl)c1C(=O)N[C@@H]1C(=O)N2[C@@H]1SC(C)(C)[C@@H]2C(=O)O", "note": "[Compound 186, Cloxacillin sodium salt]", "values": [{"measurement": "neuroprotection of dopaminergic neurons against 6-OHDA", "setting": "[1]", "result": "neuroprotective actions in this model, albeit to a lesser degree"}]}
{"smiles": "CCn1cc(C(=O)O)c(=O)c2cc3c(cc21)OCO3", "note": "[Compound 193, Oxolinic Acid]", "values": [{"measurement": "Specificity in worm assay", "setting": "[2]", "result": "wt torsinA"}, {"measurement": "reduction of protein aggregation", "setting": "[3]", "result": "reduced protein aggregation"}, {"measurement": "preventative effect on protein aggregation", "setting": "[4]", "result": "seem to be beneficial"}, {"measurement": "corrective effect on protein aggregation", "setting": "[5]", "result": "seem to be beneficial"}, {"measurement": "enhanced wild type DA neuron survival", "setting": "[6]", "result": "31.4±3.7", "unit": "%"}, {"measurement": "enhanced DA neuron survival", "setting": "[7]", "result": "no significant neuroprotection"}]}
{"smiles": "CCCCOc1ccc(C(=O)CCN2CCCCC2)cc1", "note": "[Compound 264, Dyclonine HCl]", "values": [{"measurement": "reduction of protein aggregates", "setting": "[8]", "result": "reduced the presence of protein aggregates"}]}
{"smiles": "CC1(C)S[C@@H]2[C@H](NC(=O)[C@H](N)c3ccc(O)cc3)C(=O)N2[C@H]1C(=O)O", "note": "[Compound 357, Amoxiciflin]", "values": [{"measurement": "neuroprotection of dopaminergic neurons against 6-OHDA", "setting": "[1]", "result": "neuroprotective actions in this model, albeit to a lesser degree"}]}
{"smiles": "CC1=C(C(=O)O)N2C(=O)[C@@H](NC(=O)[C@H](N)c3ccc(O)cc3)[C@H]2SC1", "note": "[Compound 434, Cefadroxil]", "values": [{"measurement": "neuroprotection of dopaminergic neurons against 6-OHDA", "setting": "[1]", "result": "neuroprotective actions to the same degree as compound 235"}]}
{"smiles": "CC1(C)S[C@@H]2[C@H](NC(=O)C(C(=O)O)c3ccccc3)C(=O)N2[C@H]1C(=O)O", "note": "(stereo partly shown) [Compound 703, Carbenicillin disodium salt]", "values": [{"measurement": "neuroprotection of dopaminergic neurons against 6-OHDA", "setting": "[1]", "result": "neuroprotective actions to the same degree as compound 235"}]}
